We go through seven molecules from US12398155B2, “Thienopyridinone compounds” (Janssen Pharmaceutica NV, priority 2019, dated 2025).

In test [1] the test system is NIH/3T3 cells transfected with control vector. The experiment in a line: NIH/3T3 mock cell proliferation assay (counter assay, general toxicity). Format: cell-based. The conditions noted are these: Mus musculus, NIH3T3; 72-hr incubation, CellTiter Glo; read-out: NIH/3T3 MOCK CTG. How it is done:
NIH/3T3 Mock Cell Proliferation Assay
(§1) In day 1, 90 μL of cell suspension (NIH/3T3 cells transfected with the same control vector as in the above two proliferation assays) (total 30,000 cells per well in growth medium (DMEM containing 1% Glutamax, 10% FBS and 1% Pen/Strep)) was seeded in a 96-well plate and then incubated overnight at 37° C. and 5% CO2. In day 2, 10 μL of growth medium containing 10-fold stock solution of testing compound was added into cell cultures (9 dose points with 3× serial dilution, starting with 30 μM, 0.3% DMSO final). After 72-hr incubation at 37° C. and 5% CO2, in day 5 a volume of 50 μL CellTiter Glo (CTG) reagent was added into cell-containing 96-well plate and the plate was incubated at room temperature for 10 minutes before RLUs (relative light unit) were measured on a microplate reader with luminescence detection module. The RLU value was normalized to survival % and concentration-response curve was plotted using Prism to calculate IC50 (M), pIC50 (−log IC50) and HillSlope value.
On the technique in general: In ATP-based viability assays light output follows the ATP content of the culture.

Test [2] concerns the target T1, NIH/3T3 cells overexpressing FGFR3 WT-TACC3 fusion protein (Homo sapiens, UniProt P22607).
T1 construct: NIH/3T3 FGFR3 WT-TACC3 CTG; other: 72-hr incubation, CellTiter Glo; fused on or other part: C-terminal part of TACC3 (coiled-coil) fused behind the FGFR3 kinase domain; Q9Y6A5 (Transforming acidic coiled-coil-containing protein 3)
The experiment in a line: NIH/3T3 FGFR3 WT-TACC3 cell proliferation assay. Format: cell-based. The conditions noted are these: 72-hr incubation, CellTiter Glo; read-out: NIH/3T3 FGFR3 WT-TACC3 CTG. How it is done: NIH/3T3 FGFR3 WT-TACC3 Cell Proliferation Assay
as §1, with “cells overexpressing FGFR3 WT-TACC3 fusion protein)” for “cells transfected with the same control vector as in the above two proliferation assays)”, “with 4×” for “with 3×”, “with 10” for “with 30”, “μM, 0.1%” for “μM, 0.3%”

Test [3] deals with T2, NIH/3T3 cells overexpressing FGFR3 V555M-TACC3 fusion protein (Homo sapiens, UniProt P22607, V555M, cells depend on it).
T2 construct: NIH/3T3 FGFR3 V555M-TACC3 CTG; other: 72-hr incubation, CellTiter Glo; fused on or other part: C-terminal part of TACC3 (coiled-coil) fused behind the FGFR3 kinase domain; Q9Y6A5 (Transforming acidic coiled-coil-containing protein 3)
T2 sequence (P22607 whole entry V555M, the tested form may be a part): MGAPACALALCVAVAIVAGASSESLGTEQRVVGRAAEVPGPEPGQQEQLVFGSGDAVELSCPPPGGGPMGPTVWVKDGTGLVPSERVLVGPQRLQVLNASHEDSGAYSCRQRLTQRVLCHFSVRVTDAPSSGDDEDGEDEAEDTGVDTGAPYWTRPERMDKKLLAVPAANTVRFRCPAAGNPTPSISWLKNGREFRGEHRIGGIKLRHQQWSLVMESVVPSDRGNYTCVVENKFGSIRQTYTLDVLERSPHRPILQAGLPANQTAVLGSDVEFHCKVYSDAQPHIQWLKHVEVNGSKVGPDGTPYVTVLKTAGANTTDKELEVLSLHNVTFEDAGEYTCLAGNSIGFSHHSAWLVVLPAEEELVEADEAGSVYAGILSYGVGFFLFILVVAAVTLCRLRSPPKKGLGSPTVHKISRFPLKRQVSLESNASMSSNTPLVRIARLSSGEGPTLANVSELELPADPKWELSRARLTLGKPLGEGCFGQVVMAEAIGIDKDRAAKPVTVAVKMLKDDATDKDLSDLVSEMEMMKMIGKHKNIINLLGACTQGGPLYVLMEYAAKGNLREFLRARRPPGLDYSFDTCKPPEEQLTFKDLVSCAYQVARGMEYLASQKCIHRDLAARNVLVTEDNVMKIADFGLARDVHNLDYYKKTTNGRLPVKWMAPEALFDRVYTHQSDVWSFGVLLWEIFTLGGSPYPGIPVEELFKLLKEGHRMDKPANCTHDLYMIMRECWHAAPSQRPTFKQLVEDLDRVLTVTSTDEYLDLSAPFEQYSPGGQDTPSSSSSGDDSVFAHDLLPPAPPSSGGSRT
The experiment in a line: NIH/3T3 FGFR3 V555M-TACC3 cell proliferation assay. Conditions: 72-hr incubation, CellTiter Glo; read-out: NIH/3T3 FGFR3 V555M-TACC3 CTG. Format: cell-based. Here is the method: NIH/3T3 FGFR3 V555M-TACC3 Cell Proliferation Assay
as §1, with “cells overexpressing FGFR3 V555M-TACC3 fusion protein)” for “cells transfected with the same control vector as in the above two proliferation assays)”, “with 4×” for “with 3×”, “with 10” for “with 30”, “μM, 0.1%” for “μM, 0.3%”

In test [4] the target is T3, human FGFR3 V555M enzyme (cytoplasmic domain carrying V555M mutation) (Homo sapiens, UniProt P22607, V555M).
T3 construct: cytoplasmic domain carrying V555M mutation, from Cama Biosciences; purchased Cama Biosciences (so in the source)
T3 sequence (P22607 397-806 V555M limits assumed): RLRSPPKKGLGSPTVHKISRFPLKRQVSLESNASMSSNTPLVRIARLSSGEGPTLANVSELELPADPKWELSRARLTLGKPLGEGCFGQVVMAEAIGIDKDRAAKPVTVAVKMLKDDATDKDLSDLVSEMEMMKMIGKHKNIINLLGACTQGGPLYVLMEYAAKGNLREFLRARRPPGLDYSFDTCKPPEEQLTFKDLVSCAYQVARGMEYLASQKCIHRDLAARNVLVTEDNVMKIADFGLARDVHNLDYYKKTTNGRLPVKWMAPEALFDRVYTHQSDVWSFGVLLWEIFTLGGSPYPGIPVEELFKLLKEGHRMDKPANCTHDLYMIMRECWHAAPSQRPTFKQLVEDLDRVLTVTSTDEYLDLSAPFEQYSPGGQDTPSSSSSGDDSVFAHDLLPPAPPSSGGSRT
The experiment in a line: FGFR3 V555M mobility shift assay (enzymatic assay). It is filed as biochemical. Conditions: 30 μM ATP, 45 minutes at 30° C.; read-out: FGFR3 V555M Caliper. Here is the method:
FGFR3 V555M Mobility Shift Assay (Enzymatic Assay)
(§2) In a final reaction volume of 25 μL, 0.04 ng/μL human FGFR3 V555M enzyme (cytoplasmic domain carrying V555M mutation, from Cama Biosciences) was incubated with 30 μM ATP, 1 μM FL-peptide 30 substrate and 250 nL of testing compound (1% DMSO final) in assay buffer (100 mM HEPES pH 7.4, 10 mM MgCl2, 0.003% Brij35, 1 mM DTT). After incubation for 45 minutes at 30° C. the reaction was stopped with 10 μL of 0.5M EDTA pH 8.0, and then 25 μL of reaction mixture was transferred to reading plate and measured on Caliper EZ reader II. The substrate-product conversion rate was used as raw data for normalization and concentration-response curve (10 dose points with 4× serial dilution, starting with 10 μM) was plotted using Prism to calculate IC50 (M), pIC50 (−log IC50) and HillSlope value.

Test [5] has as its target T4, human FGFR3 wild type enzyme (cytoplasmic domain) (Homo sapiens, UniProt P22607).
T4 construct: human FGFR3 wild type enzyme (cytoplasmic domain, from Cama Biosciences); purchased Cama Biosciences (so in the source)
Briefly: FGFR3 wild type mobility shift assay (enzymatic assay). It is filed as biochemical. Conditions: 75 μM ATP, 50 minutes at 30° C.; read-out: FGFR3 wild type Caliper. How it is done:
FGFR3 Wild Type Mobility Shift Assay (Enzymatic Assay)
as §2, with “FGFR3 wild type” for “FGFR3 V555M”, “(cytoplasmic domain,” for “(cytoplasmic domain carrying V555M mutation,”, “with 75” for “with 30”, “for 50” for “for 45”

Where a name gives a salt, the structure may show the parent alone.

T1 sequence (P22607 whole entry, change not shown, the tested form may be a part): as the sequence (P22607 whole entry V555M, the tested form may be a part) above, with M555V counted along it
T4 sequence (P22607 397-806 limits assumed): as the sequence (P22607 397-806 V555M limits assumed) above, with M159V counted along it

`COCC(Nc1c(-c2nc3cnc(N4C[C@@H](C)O[C@@H](C)C4)cc3[nH]2)c(=O)[nH]c2ccsc12)c1ncccn1` (single isomer, unassigned) [Compound 7, (S*)-6-(6-(cis-2,6-dimethylmorpholino)-1H-imidazo[4,5-c]pyridin-2-yl)-7-((2-methoxy-1-(pyrimidin-2-yl)ethyl)amino)thieno[3,2-b]pyridin-5(4H)-one]: the IC50 worked out at 3050 nM in test [1], 2.34 nM in test [4] and 35.5 nM in test [5]. The figures for the GI50 in test [2] and in test [3] were 486 nM and 284 nM, respectively.
Regarding `COCC(Nc1c(-c2nc3cnc(N4C[C@@H](C)O[C@@H](C)C4)cc3[nH]2)c(=O)[nH]c2ccsc12)c1ncccn1` (single isomer, unassigned) [Compound 8, (R*)-6-(6-(cis-2,6-dimethylmorpholino)-1H-imidazo[4,5-c]pyridin-2-yl)-7-((2-methoxy-1-(pyrimidin-2-yl)ethyl)amino)thieno[3,2-b]pyridin-5(4H)-one], the IC50 in test [4] is 9.42 nM; in test [5], 28.6 nM.
Consider `COC[C@@H](Nc1c(-c2nc3ccc(N4C[C@@H](C)O[C@@H](C)C4)nc3[nH]2)c(=O)[nH]c2ccsc12)c1ncccn1` (single isomer, unassigned) [Compound 10, (S*)-6-(5-(cis-2,6-dimethylmorpholino)-3H-imidazo[4,5-b]pyridin-2-yl)-7-(((S*)-2-methoxy-1-(pyrimidin-2-yl)ethyl)amino)thieno[3,2-b]pyridin-5(4H)-one], for which the IC50 came out at 119 nM in test [4] and 290 nM in test [5].
Regarding `COC[C@H](Nc1c(-c2nc3ccc(N4C[C@@H](C)O[C@@H](C)C4)nc3[nH]2)c(=O)[nH]c2ccsc12)c1ncccn1` (single isomer, unassigned) [Compound 11, (R*)-6-(5-(cis-2,6-dimethylmorpholino)-3H-imidazo[4,5-b]pyridin-2-yl)-7-(((R*)-2-methoxy-1-(pyrimidin-2-yl)ethyl)amino)thieno[3,2-b]pyridin-5(4H)-one], the IC50 in test [1] was found to be 3200 nM; in test [4], 0.93 nM; in test [5] it was 8.73 nM. The GI50 in test [2] came out at 101 nM; in test [3] it was 91.1 nM.
For `CC(C)[C@H](Nc1c(-c2nc3cnc(N4CCN(C)CC4)cc3[nH]2)c(=O)[nH]c2ccsc12)c1ncccn1` (single isomer, unassigned) [Compound 12, (S*)-7-((2-methyl-1-(pyrimidin-2-yl)propyl)amino)-6-(6-(4-methylpiperazin-1-yl)-1H-imidazo[4,5-c]pyridin-2-yl)thieno[3,2-b]pyridin-5(4H)-one 0.6 formate], in that order: 482 nM, 0.33 nM, 0.24 nM, 3.82 nM and 5.02 nM.
As to `C[C@@H](Nc1c(-c2nc3cnc(N4CCOCC4)cc3[nH]2)c(=O)[nH]c2ccsc12)c1ncccn1` [Compound 3, (R)-6-(6-Morpholino-1H-imidazo[4,5-c]pyridin-2-yl)-7-((1-(pyrimidin-2-yl)ethyl)amino)-thieno[3,2-b]pyridin-5(4H)-one], the figures for the IC50 in test [4] and in test [5] were 2.74 nM and 21.2 nM, respectively.
With `C[C@H](Nc1c(-c2nc3cnc(N4CCN(C)CC4)cc3[nH]2)c(=O)[nH]c2ccsc12)c1ncccn1` [Compound 5, (S)-6-(6-(4-methylpiperazin-1-yl)-1H-imidazo[4,5-c]pyridin-2-yl)-7-((1-(pyrimidin-2-yl)-ethyl)amino)thieno[3,2-b]pyridin-5(4H)-one], the IC50 was 571 nM in test [1], 0.13 nM in test [4] and 0.14 nM in test [5]. In addition, the GI50 was 2.1 nM in test [2] and 4.64 nM in test [3].
